Laboratory results taken from ChEMBL document CHEMBL5108044, “Discovery of a Novel Potent STAT3 Inhibitor HP590 with Dual p-Tyr705/Ser727 Inhibitory Activity for Gastric Cancer Treatment” (J Med Chem, 2022).
Activity calls are given as the source filed them. The calls are words filed in the database; no cut-off is given here.

Legend:
[1] = target: Tyrosine-protein kinase JAK2 (Homo sapiens, UniProt O60674); experiment: Inhibition of JAK2 (unknown origin)
AGS [2] = experiment: Induction of apoptosis in human AGS cells assessed as late apoptic cells 5 nM incubated for 48 hrs by FITC-annexin V/propidium iodide staining based flow cytometry (reference value: 9.56%); type: functional
NIH3T3 = experiment: Antiproliferative activity against […] cells assessed as cell viability measured upto 1 uM incubated for 72 hrs by MTS assay; type: toxicity, cell-based; conditions: mouse, nih3t3, 72 h
[3] = target: T1, Signal transducer and activator of transcription 3 (Homo sapiens, UniProt P40763); experiment: Inhibition of STAT3 phosphorylation at Tyr705 residue in human AGS cells upto 40 nM incubated upto 24 hrs by Western blotting analysis; type: cell-based
T1 sequence (P40763 whole entry): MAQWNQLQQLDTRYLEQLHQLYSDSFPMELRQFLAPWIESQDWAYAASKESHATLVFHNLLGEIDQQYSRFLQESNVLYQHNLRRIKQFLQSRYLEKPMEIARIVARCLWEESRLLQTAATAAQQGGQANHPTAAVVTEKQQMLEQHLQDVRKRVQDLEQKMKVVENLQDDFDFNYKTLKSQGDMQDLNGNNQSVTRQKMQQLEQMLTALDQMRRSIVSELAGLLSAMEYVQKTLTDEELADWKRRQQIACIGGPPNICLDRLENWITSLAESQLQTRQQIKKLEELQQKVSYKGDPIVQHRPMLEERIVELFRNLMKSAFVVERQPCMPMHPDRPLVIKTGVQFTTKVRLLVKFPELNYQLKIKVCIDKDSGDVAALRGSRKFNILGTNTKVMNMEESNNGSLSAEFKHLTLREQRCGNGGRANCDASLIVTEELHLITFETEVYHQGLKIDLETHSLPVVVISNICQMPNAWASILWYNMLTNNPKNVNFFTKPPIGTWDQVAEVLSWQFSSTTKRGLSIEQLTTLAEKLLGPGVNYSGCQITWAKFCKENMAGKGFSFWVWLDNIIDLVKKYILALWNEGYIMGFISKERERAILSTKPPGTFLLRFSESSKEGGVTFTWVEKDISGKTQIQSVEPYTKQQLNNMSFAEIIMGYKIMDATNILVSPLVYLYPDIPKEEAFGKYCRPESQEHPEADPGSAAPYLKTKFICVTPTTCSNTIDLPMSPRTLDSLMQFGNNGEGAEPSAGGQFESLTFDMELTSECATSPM

MKN-45 [4] = experiment: Inhibition of mitochondrial respiration in human MKN-45 cells assessed as oxygen consumption rate incubated for 1 hr by Seahorse XF24 extracellular flux analyzer; type: functional, cell-based; conditions: dose 1-100 nM, DDE = dose-dependent effect
MKN-45 [5] = experiment: Induction of apoptosis in human MKN-45 cells assessed as viable cells at 5 nM incubated for 48 hrs by FITC-annexin V/propidium iodide staining based flow cytometry (reference value: 68%); type: functional; conditions: read-out: Activity
[6] = target: T1, Signal transducer and activator of transcription 3; experiment: Binding affinity to human STAT3-SH2 domain (127 to 722 residues) assessed as dissociation constant by MST assay
AGS [7] = experiment: Inhibition of colony formation in human AGS cells assessed as reduction in number of colonies incubated for 5 to 7 days by crystal violet staining based assay; type: functional, cell-based; conditions: dose <= 20.0 nM, time 5-7 day, DDE = dose-dependent effect
[8] = target: T1, Signal transducer and activator of transcription 3; experiment: Binding affinity to human STAT3 transfected in HEK293T cells assessed as change in melting temperature at 5 uM by thermal shift assay; type: cell-based
[9] = target: Epidermal growth factor receptor (Homo sapiens, UniProt P00533); experiment: Inhibition of EGFR (unknown origin)
Epidermal growth factor receptor, sequence (P00533 whole entry): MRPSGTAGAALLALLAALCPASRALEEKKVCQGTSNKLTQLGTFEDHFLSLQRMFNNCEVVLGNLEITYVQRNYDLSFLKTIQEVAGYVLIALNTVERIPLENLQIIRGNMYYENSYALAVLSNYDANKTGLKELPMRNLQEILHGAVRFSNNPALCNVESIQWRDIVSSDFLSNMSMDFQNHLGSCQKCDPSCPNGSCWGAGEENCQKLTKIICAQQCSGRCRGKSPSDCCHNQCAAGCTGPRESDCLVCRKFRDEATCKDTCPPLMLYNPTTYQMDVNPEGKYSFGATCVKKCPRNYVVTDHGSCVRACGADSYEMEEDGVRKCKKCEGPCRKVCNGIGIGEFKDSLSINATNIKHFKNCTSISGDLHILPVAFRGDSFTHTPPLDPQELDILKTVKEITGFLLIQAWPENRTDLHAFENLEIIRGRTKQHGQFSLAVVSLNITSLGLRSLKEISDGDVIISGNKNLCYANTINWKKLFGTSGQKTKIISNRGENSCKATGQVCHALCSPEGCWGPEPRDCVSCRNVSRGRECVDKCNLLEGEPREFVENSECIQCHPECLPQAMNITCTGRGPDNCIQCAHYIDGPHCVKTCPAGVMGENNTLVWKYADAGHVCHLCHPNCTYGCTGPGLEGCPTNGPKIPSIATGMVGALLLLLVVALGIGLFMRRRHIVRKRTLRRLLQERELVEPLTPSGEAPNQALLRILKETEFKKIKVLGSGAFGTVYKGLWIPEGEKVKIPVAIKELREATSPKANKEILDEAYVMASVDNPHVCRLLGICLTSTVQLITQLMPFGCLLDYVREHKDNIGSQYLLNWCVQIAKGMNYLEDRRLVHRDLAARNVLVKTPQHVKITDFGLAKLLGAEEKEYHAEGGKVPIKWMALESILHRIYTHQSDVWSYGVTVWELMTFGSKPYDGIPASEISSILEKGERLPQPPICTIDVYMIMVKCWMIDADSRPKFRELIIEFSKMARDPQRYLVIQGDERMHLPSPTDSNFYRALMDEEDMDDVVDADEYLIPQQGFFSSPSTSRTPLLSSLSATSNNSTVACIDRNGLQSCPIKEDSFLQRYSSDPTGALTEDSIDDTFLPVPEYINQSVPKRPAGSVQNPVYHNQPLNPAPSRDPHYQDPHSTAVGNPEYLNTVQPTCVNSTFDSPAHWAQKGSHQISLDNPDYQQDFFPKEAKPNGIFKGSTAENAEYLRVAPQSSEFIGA

[10] = Toxicity in […] mouse xenografted with human MKN-45 cells assessed as heart damage at 25 to 50 mg/kg, po qd administered for 5 weeks by H and E staining based analysis; type: organism-based; conditions: in vivo, 840 h, dose 25-50 mg/kg
[11] = target: T1, Signal transducer and activator of transcription 3; experiment: Inhibition of STAT3 phosphorylation at Tyr705 residue in human MGC-803 cells incubated upto 24 hrs by Western blotting analysis; type: cell-based; conditions: dose <= 40.0 nM, DDE = dose-dependent effect
AGS [12] = experiment: Induction of apoptosis in human AGS cells assessed as early apoptic cells 5 nM incubated for 48 hrs by FITC-annexin V/propidium iodide staining based flow cytometry (reference value: 0.55%); type: functional
[13] = Cmax in ICR mouse plasma at 1 mg/kg, iv measured up to 24 hrs by LC-MS/MS analysis; type: ADME, organism-based; design: time < 24 hrs, dose 1 mg/kg, route iv
[14] = target: Mitogen-activated protein kinase 8 (Homo sapiens, UniProt P45983); experiment: Inhibition of JNK1 (unknown origin)
Mitogen-activated protein kinase 8, sequence (P45983 whole entry): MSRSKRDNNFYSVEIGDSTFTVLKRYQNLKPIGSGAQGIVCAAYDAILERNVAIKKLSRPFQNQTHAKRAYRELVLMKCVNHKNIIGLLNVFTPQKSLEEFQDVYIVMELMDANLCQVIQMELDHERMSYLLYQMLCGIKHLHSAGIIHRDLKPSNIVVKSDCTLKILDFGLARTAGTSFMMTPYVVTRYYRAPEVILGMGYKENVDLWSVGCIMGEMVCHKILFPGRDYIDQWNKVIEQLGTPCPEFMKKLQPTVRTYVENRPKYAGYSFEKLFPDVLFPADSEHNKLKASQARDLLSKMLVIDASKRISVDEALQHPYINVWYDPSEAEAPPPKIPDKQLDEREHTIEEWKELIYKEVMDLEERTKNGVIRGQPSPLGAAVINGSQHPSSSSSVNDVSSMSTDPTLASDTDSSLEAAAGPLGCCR

MKN-45 [15] = experiment: Induction of apoptosis in human MKN-45 cells assessed as late apoptic cells 5 nM incubated for 48 hrs by FITC-annexin V/propidium iodide staining based flow cytometry (reference value: 17.9%); type: functional
[16] = target: T1, Signal transducer and activator of transcription 3; experiment: Inhibition of IL-6 induced STAT3 phosphorylation at Tyr705 residue in human MKN-45 cells at 40 nM preincubated for 24 hrs followed by IL-6 stimulation and measured after 30 min by Western blotting analysis; type: cell-based; conditions: time 24.5 hrs
MKN-45 [17] = experiment: Induction of apoptosis in human MKN-45 cells assessed as necrotic cells 20 nM incubated for 48 hrs by FITC-annexin V/propidium iodide staining based flow cytometry (reference value: 10.3%); type: functional
[18] = target: T1, Signal transducer and activator of transcription 3; experiment: Inhibition of STAT3 phosphorylation at Ser727 residue in human MKN-45 cells upto 40 nM incubated upto 24 hrs by Western blotting analysis; type: cell-based
MKN-45 [19] = experiment: Antitumor activity against human MKN-45 cells xenografted in BALB/c nude mouse assessed as decrease in tumor volume at 25 mg/kg, po qd measured for 5 weeks; type: functional, organism-based
AGS [20] = experiment: Induction of apoptosis in human AGS cells assessed as viable cells at 20 nM incubated for 48 hrs by FITC-annexin V/propidium iodide staining based flow cytometry (reference value: 87.2%); type: functional; conditions: read-out: Activity
MKN-45 [21] = experiment: In vivo inhibition of STAT3 phosphorylation at Ser727 residue in human MKN-45 cells xenografted in BALB/c nude mouse at 25 to 50 mg/kg, po qd administered for 5 weeks by immunohistochemical analysis; type: functional, organism-based; conditions: dose 25-50 mg/kg
AGS [22] = experiment: Inhibition of colony formation in STAT3 knockdown human AGS cells assessed as reduction in number of colonies incubated for 5 to 7 days by crystal violet staining based assay; type: functional, cell-based; conditions: time 5-7 day
[23] = target: T1, Signal transducer and activator of transcription 3; experiment: Inhibition of STAT3 phosphorylation at Ser727 residue in human MKN-45 cells upto 40 nM by Western blotting analysis; type: cell-based; conditions: time <= 24.0 hrs, TDE = time-dependent effect
[24] = target: T1, Signal transducer and activator of transcription 3; experiment: Inhibition of IL-6 induced STAT3 phosphorylation at Tyr705 residue in human MGC-803 cells at 40 nM preincubated for 24 hrs followed by IL-6 stimulation and measured after 30 min by Western blotting analysis; type: cell-based; conditions: time 24.5 hrs
MKN-45 [25] = experiment: In vivo inhibition of STAT3 in human MKN-45 cells xenografted in BALB/c nude mouse assessed as reduction in cyclin D1 gene expression at 25 to 50 mg/kg, po qd administered for 5 weeks by Western blot analysis; type: functional, organism-based; conditions: dose 25-50 mg/kg
Cytochrome P450 2D6 = Cytochrome P450 2D6 (Homo sapiens, UniProt P10635); experiment: Inhibition of CYP2D6 in human liver microsome; type: ADME, microsomes
Cytochrome P450 2D6, sequence (P10635 whole entry): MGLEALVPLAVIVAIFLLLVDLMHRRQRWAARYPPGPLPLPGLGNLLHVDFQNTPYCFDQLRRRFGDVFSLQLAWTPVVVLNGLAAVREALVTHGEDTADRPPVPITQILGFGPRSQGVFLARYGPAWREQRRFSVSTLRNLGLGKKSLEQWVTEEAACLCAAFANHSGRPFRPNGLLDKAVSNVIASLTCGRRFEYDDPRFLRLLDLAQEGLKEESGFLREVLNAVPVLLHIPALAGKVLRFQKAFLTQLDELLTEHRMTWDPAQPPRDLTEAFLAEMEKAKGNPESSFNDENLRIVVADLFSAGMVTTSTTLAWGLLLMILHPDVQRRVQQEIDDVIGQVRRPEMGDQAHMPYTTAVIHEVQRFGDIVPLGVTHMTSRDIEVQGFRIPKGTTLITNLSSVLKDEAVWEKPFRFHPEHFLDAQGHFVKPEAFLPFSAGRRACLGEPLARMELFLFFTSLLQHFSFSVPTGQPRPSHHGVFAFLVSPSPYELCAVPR

[26] = target: T1, Signal transducer and activator of transcription 3; experiment: Inhibition of STAT3 phosphorylation at Ser727 residue in human AGS cells incubated upto 24 hrs by Western blotting analysis; type: cell-based; conditions: dose <= 40.0 nM, DDE = dose-dependent effect
[27] = target: T1, Signal transducer and activator of transcription 3; experiment: Inhibition of STAT3 phosphorylation at Tyr705 residue in human MKN-45 cells incubated upto 24 hrs by Western blotting analysis; type: cell-based; conditions: dose <= 40.0 nM, DDE = dose-dependent effect
MKN-45 [28] = experiment: Inhibition of mitochondrial respiration in STAT3 knockdown human MKN-45 cells assessed as maximal oxygen consumption rate incubated for 80 mins […]; type: functional, cell-based
[29] = Toxicity in BALB/c nude mouse assessed as body weight loss at 25 to 50 mg/kg, po qd administered for 5 weeks; type: organism-based; conditions: in vivo, 840 h, dose 25-50 mg/kg
MKN-45 [30] = experiment: Induction of apoptosis in human MKN-45 cells assessed as viable cells at 20 nM incubated for 48 hrs by FITC-annexin V/propidium iodide staining based flow cytometry (reference value: 68%); type: functional; conditions: read-out: Activity
MKN-45 [31] = experiment: Antiproliferative activity against human MKN-45 cells assessed as cell viability incubated for 72 hrs by MTS assay; type: functional, cell-based; conditions: dose <= 100.0 nM, DDE = dose-dependent effect
GES1 = experiment: Antiproliferative activity against human GES1 cells assessed as cell viability measured upto 1 uM incubated for 72 hrs by MTS assay; type: toxicity, cell-based; conditions: ges1, 72 h
[32] = target: T1, Signal transducer and activator of transcription 3; experiment: Inhibition of STAT3 in human AGS cells assessed as downregulation of Survivin expression at 10 to 40 nM incubated for 24 hrs by RT-PCR analysis; type: cell-based; conditions: dose 10-40 nM
[33] = Toxicity in BALB/c nude mouse xenografted with human MKN-45 cells assessed as lung damage at 25 to 50 mg/kg, po qd administered for 5 weeks by H and E staining based analysis; type: organism-based; conditions: in vivo, 840 h, dose 25-50 mg/kg

Tyrosine-protein kinase JAK2, sequence (O60674 whole entry): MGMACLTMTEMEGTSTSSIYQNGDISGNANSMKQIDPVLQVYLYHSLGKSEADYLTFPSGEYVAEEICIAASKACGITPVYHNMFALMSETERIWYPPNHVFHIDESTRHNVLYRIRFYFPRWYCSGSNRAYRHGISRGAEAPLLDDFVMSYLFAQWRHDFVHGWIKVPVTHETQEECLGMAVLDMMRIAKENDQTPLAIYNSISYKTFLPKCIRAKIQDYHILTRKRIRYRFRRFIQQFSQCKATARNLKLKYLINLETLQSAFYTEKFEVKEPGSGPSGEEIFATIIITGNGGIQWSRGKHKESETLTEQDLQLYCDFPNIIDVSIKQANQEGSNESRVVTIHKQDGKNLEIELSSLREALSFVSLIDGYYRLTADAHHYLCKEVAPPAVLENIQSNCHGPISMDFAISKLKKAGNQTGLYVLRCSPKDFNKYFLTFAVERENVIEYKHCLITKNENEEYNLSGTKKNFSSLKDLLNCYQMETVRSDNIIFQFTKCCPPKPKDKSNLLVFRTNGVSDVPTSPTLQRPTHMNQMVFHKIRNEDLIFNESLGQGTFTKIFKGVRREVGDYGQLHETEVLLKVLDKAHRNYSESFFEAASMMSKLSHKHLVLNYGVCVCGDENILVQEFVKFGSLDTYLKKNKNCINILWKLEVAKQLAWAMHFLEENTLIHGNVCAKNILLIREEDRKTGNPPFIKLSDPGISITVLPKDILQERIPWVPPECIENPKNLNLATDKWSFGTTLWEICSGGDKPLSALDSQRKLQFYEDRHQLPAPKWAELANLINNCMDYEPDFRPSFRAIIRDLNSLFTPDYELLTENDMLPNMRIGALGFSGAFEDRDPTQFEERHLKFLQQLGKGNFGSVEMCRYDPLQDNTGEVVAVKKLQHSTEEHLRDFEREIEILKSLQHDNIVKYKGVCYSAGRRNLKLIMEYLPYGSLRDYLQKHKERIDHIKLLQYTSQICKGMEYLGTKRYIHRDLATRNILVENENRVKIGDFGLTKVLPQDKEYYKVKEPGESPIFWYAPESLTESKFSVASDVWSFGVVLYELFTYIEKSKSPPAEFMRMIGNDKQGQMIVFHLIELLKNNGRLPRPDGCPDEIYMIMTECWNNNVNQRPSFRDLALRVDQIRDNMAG

O=C(c1ccc(-c2noc(-c3ccc(C(F)(F)F)cc3)n2)cc1)N1CCN(Cc2ccc(OCC(F)(F)F)cc2)CC1
IC50 [1]: > 10 µM | Activity (AGS [2]): 7.61% | Activity (NIH3T3): Non-Toxic | inhibition [3]: 100% | inhibition (MKN-45 [4]): Dde | viability at 0.005 µM (MKN-45 [5]): 69.6% | Kd [6]: 0.114 µM | inhibition (AGS [7]): Dde | Activity [8]: Active | IC50 [9]: > 10 µM | Activity [10]: Non-Toxic | inhibition [11]: Dde | Activity (AGS [12]): 2.7% | Cmax [13]: 666 ng/mL | IC50 [14]: > 10 µM | Activity (MKN-45 [15]): 17.1% | inhibition [16]: Active | Activity (MKN-45 [17]): 11.3% | inhibition [18]: 100% | Activity (MKN-45 [19]): Active | viability at 0.02 µM (AGS [20]): 50.3% | inhibition (MKN-45 [21]): Active | inhibition (AGS [22]): Active | inhibition [23]: Tde | inhibition [24]: Active | inhibition (MKN-45 [25]): Active | IC50 (Cytochrome P450 2D6): > 50 µM | inhibition [26]: Dde | inhibition [27]: Dde | inhibition (MKN-45 [28]): Active | Activity [29]: Non-Toxic | viability at 0.02 µM (MKN-45 [30]): 60.7% | Activity (MKN-45 [31]): Dde | Activity (GES1): Non-Toxic | inhibition [32]: Active | Activity [33]: Non-Toxic
